# Columns and labels:
# [1] = cited from earlier work
# [2] = Alcohol-challenge test for relapse in a patient treated with baclofen for alcohol dependence; format: in vivo, human
# Procedure: For alcoholism, vulnerability is tested with an alcohol-challenge test of about three to five standard drinks. The number of drinks can and should be varied (typically lower) if any adverse signs or cravings appear in the patient. […] If craving occurs, the patient is not protected against relapse and the SSD dosage needs to be increased and the test performed again until craving stops occurring altogether upon renewed alcohol-challenge (s). Once that state is achieved, the patient is protected against relapse.
# The susceptibility of a patient to relapse while being treated for alcohol dependence using baclofen was determined. The patient (themself a physician) had been symptom-free for more than one year and was on a baclofen dose of 120 mg/day (40 mg, three times per day).
# First challenge: During a social gathering, the patient had 3 standard drinks of alcohol (gin and tonic) over a few hours and evaluated the effects in the presence of a physician witness. The first drink was consumed slowly by sipping over some 40 minutes, without the slightest urge to drink it rapidly (and which had previously been the only way the patient would drink, e.g., typically consuming the drink within 5 minutes). A second drink was ordered, consumed and started to produce a pleasant mild euphoria. A third drink was begun but the patient was not able to finish it, something that would have been impossible during untreated alcohol dependence. At the time, the patient felt no desire to finish the third drink, felt a bit high and maintained the ability to chat. After a night's sleep, the patient woke up without any feelings of remorse or fear. […] The following hours were unremarkable. No alcohol thoughts or dreams occurred in the following weeks.
# Second challenge: The patient repeated the experiment approximately one month later with an even stronger challenge: five drinks. Again in the presence of another physician, the patient succeeded in having 5 drinks of vodka and tonic over 6 hours. […] Accordingly the daily dosage of baclofen was increased from 40 mg three times daily, to 60 mg three times daily (180 mg/day). […] Accordingly, symptom suppression is dose-dependent and may require higher dosage when challenge is important.
# Third challenge: To test if a higher than routine dose of baclofen can prevent cravings, even in the presence of a massive amount of alcohol such as is ingested during heavy drinking or during active relapse, the patient's baclofen dose was […] 24 hours prior to consuming an alcoholic beverage. The patient took 30 mg baclofen in the morning, a second such dose 8 hours later and a few hours later (in the evening) took dose of 80 mg baclofen at the same time as beginning to drink large amounts of alcohol as could reasonably tolerated, expecting that to be about a fifth of Scotch. The alcohol was consumed over several hours and the next day, actual consumption was measured to be four fifths of the bottle. […] The patient is able to have an occasional drink in a non-dependent fashion.
# [3] = cited from earlier work; remark: listed apart in the source
smiles,measurement,setting,value
NCC(CC(=O)O)c1ccc(Cl)cc1 (centres unmarked) [baclofen],dosage sufficient for craving not to reappear,"[1]; after progressive reduction from SSD, over the complete nine months of the published study",120 mg/day
same,coexistent (comorbid preexisting) anxiety,[1]; at SSD,greatly attenuated
same,side effect,"[1]; at SSD, reduced by lowering the dosage to 120 mg/day",somnolence
same,"dose needed for craving to completely and permanently disappear (symptom-suppressing dose, SSD)","[1]; oral, gradual dose-escalation, one patient",270 mg/day
same,craving after third challenge,"[2]; 30 mg + 30 mg + 80 mg on the day, four fifths of a bottle of Scotch over several hours, next day",no craving and no desire whatsoever to drink liquor
same,craving and symptoms before challenge,"[2]; 120 mg/day (40 mg three times per day), symptom-free for more than one year",completely suppressed craving and symptoms
same,craving during follow-up after third challenge,"[2]; 180 mg/day for six days, then maintenance dose of 120 mg/day",has not experienced any craving for more than one year
same,craving after first challenge,"[2]; 3 standard drinks (gin and tonic) over a few hours, 120 mg/day, after a night's sleep",no desire or thought to drink whatsoever
same,craving after second challenge,"[2]; 5 drinks of vodka and tonic over 6 hours, 120 mg/day, next day in the afternoon",a bout of craving was experienced
same,craving on the increased regimen,"[2]; second challenge, 60 mg three times daily (180 mg/day)",craving was again completely suppressed
same,effect of an additional dose on the bout of craving,"[2]; second challenge, administration of 40 mg, craving reappeared several hours later",suppressed the craving within the hour
same,craving after dose reduction,"[2]; second challenge, after six days at 180 mg/day progressively reduced to 120 mg/day",cravings did not reoccur
same,complete and prolonged suppression of symptoms and consequences of AD,[3]; seven individual patients (Geneva) and one hundred patients (Vienna),successfully reproduced
same,relapse,"[3]; some patients treated in Switzerland, even at high-dose baclofen",did relapse

# Reference: patent US20080182904A1, “Baclofen for Relapse Protection in Addiction” (priority 2007, published 2008)
